The record followed here is publication PMC5761078 (Cell reports, 2018).

One assay concerns the target T1, A1R (Mus musculus, UniProt Q60612).
T1 sequence (Q60612 1-326): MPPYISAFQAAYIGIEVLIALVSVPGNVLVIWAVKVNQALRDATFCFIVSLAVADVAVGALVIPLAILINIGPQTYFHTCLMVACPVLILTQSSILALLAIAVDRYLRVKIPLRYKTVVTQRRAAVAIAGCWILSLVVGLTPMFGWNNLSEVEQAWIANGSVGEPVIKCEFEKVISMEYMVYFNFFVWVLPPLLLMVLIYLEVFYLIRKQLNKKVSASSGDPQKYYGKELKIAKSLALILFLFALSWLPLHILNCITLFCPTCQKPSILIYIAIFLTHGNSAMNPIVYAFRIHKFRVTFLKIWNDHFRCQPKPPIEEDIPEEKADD
The experiment in a line: TEpacVV FRET imaging of cAMP in primary neurons. It counts as cell-based. To be noted: agonist, cAMP decrease, bath application.

Assay [1] deals with D1 dopamine receptor (D1R) (Mus musculus, UniProt Q61616). To be noted: agonist, cAMP increase; dMSN cell body; bath application.
Sequence of D1 dopamine receptor (D1R) (Q61616 whole entry): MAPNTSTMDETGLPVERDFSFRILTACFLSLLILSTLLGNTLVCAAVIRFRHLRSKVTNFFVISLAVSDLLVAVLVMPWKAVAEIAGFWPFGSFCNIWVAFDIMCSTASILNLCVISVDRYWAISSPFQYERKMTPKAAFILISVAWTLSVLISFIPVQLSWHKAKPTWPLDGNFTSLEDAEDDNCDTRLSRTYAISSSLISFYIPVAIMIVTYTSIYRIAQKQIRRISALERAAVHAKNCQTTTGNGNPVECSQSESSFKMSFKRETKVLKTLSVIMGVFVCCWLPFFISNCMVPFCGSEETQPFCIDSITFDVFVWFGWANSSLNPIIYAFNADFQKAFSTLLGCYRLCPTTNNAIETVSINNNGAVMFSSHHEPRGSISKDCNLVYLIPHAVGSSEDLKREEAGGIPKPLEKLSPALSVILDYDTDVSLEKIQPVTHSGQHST

Consider `C[C@@]1(O)[C@H](O)[C@@H](CO)O[C@H]1n1cnc2c(NC3CCCC3)nc(Cl)nc21` [2′MeCCPA], for which, on A1R (dMSN), the midpoint of the response, the EC50, lay at 14.6 ± 4.1 nM.

On A1R (dMSN cell body), `Nc1ncnc2c1ncn2[C@@H]1O[C@H](CO)[C@@H](O)[C@H]1O` [adenosine] had a half-maximal effective concentration (EC50) of 112 ± 34 nM.

As for `NCCc1ccc(O)c(O)c1` [dopamine], the midpoint of the response in assay [1], the EC50, lay at 76.5 ± 13.9 nM.

One may read the EC50 as the concentration giving half of the maximal effect. High values mean a need for much substance, low ones an effect from little substance.
